Patent US20090163476A1, “N-Phenyl Benzamide Derivatives as Sirtuin Modulators” (Sirtris Pharmaceuticals, Inc., priority 2005, published 2009)

Biological target: T1, SIRT1 (Homo sapiens, UniProt Q96EB6)
T1 sequence (Q96EB6 1-747): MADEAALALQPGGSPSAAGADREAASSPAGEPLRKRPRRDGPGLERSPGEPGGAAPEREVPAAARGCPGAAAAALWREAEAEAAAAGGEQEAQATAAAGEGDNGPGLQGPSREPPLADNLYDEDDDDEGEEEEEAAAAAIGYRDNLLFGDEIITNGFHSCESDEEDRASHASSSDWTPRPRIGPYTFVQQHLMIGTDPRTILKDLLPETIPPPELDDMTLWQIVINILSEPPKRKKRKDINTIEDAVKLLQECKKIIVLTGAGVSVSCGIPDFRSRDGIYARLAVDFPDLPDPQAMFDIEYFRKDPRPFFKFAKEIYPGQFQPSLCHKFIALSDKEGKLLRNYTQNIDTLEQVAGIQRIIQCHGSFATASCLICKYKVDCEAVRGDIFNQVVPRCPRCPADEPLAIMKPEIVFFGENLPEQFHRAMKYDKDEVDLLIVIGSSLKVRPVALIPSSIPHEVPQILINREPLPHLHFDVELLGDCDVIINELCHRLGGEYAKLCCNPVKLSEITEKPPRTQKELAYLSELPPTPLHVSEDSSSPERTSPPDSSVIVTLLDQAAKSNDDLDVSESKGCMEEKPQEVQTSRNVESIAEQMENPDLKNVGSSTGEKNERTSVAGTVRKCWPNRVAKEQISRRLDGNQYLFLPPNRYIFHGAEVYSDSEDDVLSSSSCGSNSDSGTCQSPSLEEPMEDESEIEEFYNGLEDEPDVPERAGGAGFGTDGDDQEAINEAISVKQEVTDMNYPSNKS
Assay: Mass spectrometry based assay of SIRT1 activity
Assay type: biochemical
Parameters: key to FOLD ACTIVATION MS: A: Fold activation >250%; B: Fold Activation <250%; C: no fold activation
Conditions: for EC50: activation of SIRT1, read-out: ED50 MS
Method: The mass spectrometry based assay utilizes a peptide having 20 amino acid residues as follows: […] The sequence of the peptide substrate is based on p53 with several modifications. […] Test compounds may be added to the reaction as described above. […] After the 25 minute incubation with SIRT1, 10 μL of 10% formic acid is added to stop the reaction. Reactions are sealed and frozen for later mass spec analysis. Determination of the mass of the substrate peptide allows for precise determination of the degree of acetylation (i.e. starting material) as compared to deacetylated peptide (product). […] This timepoint is the same as that used for test compounds and, within the linear range, the endpoint represents a change in velocity. For each of the above assays, SIRT1 protein was expressed and purified as follows. The SirT1 gene was cloned into a T7-promoter containing vector and transformed into BL21(DE3). The protein was expressed by induction with 1 mM IPTG as an N-terminal His-tag fusion protein at 18° C. overnight and harvested at 30,000×g. […] The protein was purified over a Ni-NTA column (Amersham) and fractions containing pure protein were pooled, concentrated and run over a sizing column (Sephadex S200 26/60 global). The peak containing soluble protein was collected and run on an Ion-exchange column (MonoQ). […] This protein was concentrated and dialyzed against dialysis buffer (20 mM Tris-HCl, 2 mM TCEP) overnight. The protein was aliquoted and frozen at −80° C. until further use.

Row | SMILES | EC50 [µM] | FOLD ACTIVATION MS
1 | COc1ccc(C(=O)Nc2cccc(-c3nc4ccncc4s3)c2)cc1OC [Compound 114] | < 50 | A (Fold activation >250%)
2 | COc1cc(C(=O)Nc2cccc(-c3nc4ccncc4s3)c2)cc(OC)c1OC [Compound 115] | < 50 | A (Fold activation >250%)
3 | COc1ccc(C(=O)Nc2cccc(-c3cnc4ccccc4n3)c2)cc1OC [Compound 116] | 101 to 150 | 
4 | COc1ccc(C(=O)Nc2cccc(-c3nc4cc(C)ccc4[nH]3)c2)cc1OC [Compound 117] | < 50 | A (Fold activation >250%)
5 | COc1cc(C(=O)Nc2cccc(-c3cn4ccsc4n3)c2)cc(OC)c1OC [Compound 118] | < 50 | A (Fold activation >250%)
6 | COc1ccc(C(=O)Nc2cccc(-c3nc4cc(C(C)C)ccc4o3)c2)cc1OC [Compound 122] | 101 to 150 | 
7 | COc1ccc(C(=O)Nc2cccc(-c3nc4ccccc4s3)c2)c(OC)c1 [Compound 124] | < 50 | B (Fold Activation <250%)
8 | COc1cc(C(=O)Nc2cccc(-c3nc4ccccc4c(=O)o3)c2)cc(OC)c1OC [Compound 125] | 51 to 100 | B (Fold Activation <250%)
9 | COc1cccc(OC)c1C(=O)Nc1cccc(-c2nc3ccccc3[nH]2)c1 [Compound 126] | < 50 | B (Fold Activation <250%)
10 | COc1cc(C(=O)Nc2cccc(-c3nc4ccc(C)cc4o3)c2)cc(OC)c1OC [Compound 127] | < 50 | A (Fold activation >250%)
11 | COc1ccc(C(=O)Nc2cccc(-c3cn4ccc(C)cc4n3)c2)c(OC)c1 [Compound 128] | < 50 | B (Fold Activation <250%)
12 | COc1cc(C(=O)Nc2cccc(-c3cn4ccc(C)cc4n3)c2)cc(OC)c1OC [Compound 129] | < 50 | A (Fold activation >250%)
13 | COc1ccc(C(=O)Nc2cccc(-c3cn4ccc(C)cc4n3)c2)cc1 [Compound 130] | < 50 | B (Fold Activation <250%)
14 | COc1cc(C(=O)Nc2cccc(-c3cn4cccc(C)c4n3)c2)cc(OC)c1OC [Compound 131] | < 50 | A (Fold activation >250%)
15 | COc1ccccc1C(=O)Nc1cccc(-c2cn3ccsc3n2)c1 [Compound 132] | < 50 | A (Fold activation >250%)
16 | COC(=O)c1cc(NC(=O)c2cc(OC)c(OC)c(OC)c2)cc(-c2nc3ccncc3s2)c1 [Compound 133, methyl 3-(thiazolo[5,4-c]pyridin-2-yl)-5-(3,4,5-trimethoxybenzamido)benzoate] | < 50 | B (Fold Activation <250%)
17 | COc1cc(C(=O)Nc2cc(C(=O)O)cc(-c3nc4ccncc4s3)c2)cc(OC)c1OC [Compound 134, 3-(thiazolo[5,4-c]pyridin-2-yl)-5-(3,4,5-trimethoxybenzamido)benzoic acid] | < 50 | B (Fold Activation <250%)
18 | COc1cc(C(=O)Nc2cc(CO)cc(-c3nc4ccncc4s3)c2)cc(OC)c1OC [Compound 135] | < 50 | B (Fold Activation <250%)
19 | CN(C)c1cccc(C(=O)Nc2cc(C(=O)N3CCNCC3)cc(-c3nc4ncccc4o3)c2)c1 [Compound 138] | < 50 | B (Fold Activation <250%)
20 | COc1ccc(C(=O)Nc2cc(C(=O)N3CCNCC3)cc(-c3nc4ncccc4o3)c2)c(OC)c1 [Compound 139] | < 50 | B (Fold Activation <250%)
21 | COc1ccc(C(=O)Nc2cc(C(=O)N3CCNCC3)cc(-c3nc4ncccc4o3)c2)cc1OC [Compound 164] | < 50 | B (Fold Activation <250%)

The remaining lines, values ahead:

Row | EC50 [µM] | FOLD ACTIVATION MS | SMILES
22 | > 150 |  | O=C(Nc1cccc(-c2nc3ncccc3o2)c1)c1cccc(OC(F)(F)F)c1 [Compound 50]
23 | > 150 |  | COc1ccc(C(=O)Nc2cccc(-c3nc4ncccc4o3)c2)cc1 [Compound 54]
24 | < 50 | B (Fold Activation <250%) | O=C(Nc1cccc(-c2nc3ncccc3o2)c1)c1ccccc1N1CCOCC1 [Compound 109]
25 | 101 to 150 |  | COc1ccc(C(=O)Nc2cccc(-c3nc4ncccc4o3)c2)cc1Cl [Compound 110]
26 | < 50 | B (Fold Activation <250%) | CN(C)c1cccc(C(=O)Nc2cccc(-c3nc4cccnc4o3)c2)c1 [Compound 111]
27 | < 50 | B (Fold Activation <250%) | COc1ccc(C(=O)Nc2cccc(-c3nc4cccnc4o3)c2)cc1OC [Compound 112]
28 | < 50 | B (Fold Activation <250%) | CN(C)c1cccc(C(=O)Nc2cccc(-c3nc4ccncc4s3)c2)c1 [Compound 113]
29 | < 50 | B (Fold Activation <250%) | COc1cccc(OC)c1C(=O)Nc1cccc(-c2nc3ccccc3o2)c1 [Compound 119]
30 | > 150 | C | COc1cccc(C(=O)Nc2cccc(-c3nc4cc(Cl)cc(Cl)c4o3)c2)c1 [Compound 121]
31 | > 150 |  | COc1ccc(C(=O)Nc2cc(C(=O)O)cc(-c3nc4ncccc4o3)c2)cc1OC [Compound 137]
